Assays:
RAW264.7 [1] = test: Antiinflammatory activity in mouse RAW264.7 cells assessed as inhibition of LPS-induced IL-1beta level at 10 uM incubated for 24 hrs prior to LPS challenge measured after 3 hrs by qRT-PCR analysis relative to control; assay type: functional
RAW264.7 [2] = test: Antiinflammatory activity in mouse RAW264.7 cells assessed as inhibition of LPS-induced IL-6 level at 10 uM incubated for 24 hrs prior to LPS challenge measured after 3 hrs by qRT-PCR analysis relative to control; assay type: functional
RAW264.7 [3] = test: Antiinflammatory activity in mouse RAW264.7 cells assessed as inhibition of LPS-induced TNF-alpha level at 10 uM incubated for 24 hrs prior to LPS challenge measured after 3 hrs by qRT-PCR analysis relative to control; assay type: functional
RAW264.7 [4] = test: Cytotoxicity against mouse RAW264.7 cells; assay type: cell-based
RAW264.7 [5] = test: Antiinflammatory activity in mouse RAW264.7 cells assessed as inhibition of LPS-induced IL-1beta level at 5 uM incubated for 24 hrs prior to LPS challenge measured after 3 hrs by qRT-PCR analysis relative to control; assay type: functional
RAW264.7 [6] = test: Antiinflammatory activity in mouse RAW264.7 cells assessed as inhibition of LPS-induced IL-6 level at 5 uM incubated for 24 hrs prior to LPS challenge measured after 3 hrs by qRT-PCR analysis relative to control; assay type: functional
RAW264.7 [7] = test: Antiinflammatory activity in mouse RAW264.7 cells assessed as inhibition of LPS-induced TNF-alpha level at 5 uM incubated for 24 hrs prior to LPS challenge measured after 3 hrs by qRT-PCR analysis relative to control; assay type: functional
RAW264.7 [8] = test: Antiinflammatory activity in mouse RAW264.7 cells assessed as inhibition of LPS-induced IL-1beta level at 1 uM incubated for 24 hrs prior to LPS challenge measured after 3 hrs by qRT-PCR analysis relative to control; assay type: functional
RAW264.7 [9] = test: Antiinflammatory activity in mouse RAW264.7 cells assessed as inhibition of LPS-induced IL-6 level at 1 uM incubated for 24 hrs prior to LPS challenge measured after 3 hrs by qRT-PCR analysis relative to control; assay type: functional
RAW264.7 [10] = test: Antiinflammatory activity in mouse RAW264.7 cells assessed as inhibition of LPS-induced TNF-alpha level at 1 uM incubated for 24 hrs prior to LPS challenge measured after 3 hrs by qRT-PCR analysis relative to control; assay type: functional

Row | Compound | inhibition at 10 µM (RAW264.7 [1]) [%] | inhibition at 10 µM (RAW264.7 [2]) [%] | inhibition at 10 µM (RAW264.7 [3]) [%] | Activity (RAW264.7 [4]) | inhibition at 5 µM (RAW264.7 [5]) [%] | inhibition at 5 µM (RAW264.7 [6]) [%] | inhibition at 5 µM (RAW264.7 [7]) [%] | inhibition at 1 µM (RAW264.7 [8]) [%] | inhibition at 1 µM (RAW264.7 [9]) [%] | inhibition at 1 µM (RAW264.7 [10]) [%]
1 | CC1=C(C/C=C(\C)CC/C=C(\C)CC/C=C(\C)CCC(=O)O)C(=O)c2ccccc2C1=O | 21.3 | 10.6 | 2.2 | Non-toxic | – | – | – | – | – | –
2 | CC1=C(C/C=C(\C)CC/C=C(\C)CC/C=C(\C)C(=O)O)C(=O)c2ccccc2C1=O | 37 | 46.3 | 24.4 | Non-toxic | – | – | – | – | – | –
3 | CC1=C(C/C=C(\C)CC/C=C(\C)CCC(=O)O)C(=O)c2ccccc2C1=O | – | – | – | Non-toxic | 51.5 | 52.1 | 26.3 | – | – | –
4 | CC1=C(C/C=C(\C)CC/C=C(\C)C(=O)O)C(=O)c2ccccc2C1=O | – | – | – | Non-toxic | – | – | – | 43.5 | 47.7 | 7.7
5 | CC1=C(C/C=C(\C)CCC(=O)O)C(=O)c2ccccc2C1=O | – | – | – | Non-toxic | 28.3 | 29.8 | 25.2 | – | – | –
6 | CC1=C(C/C=C(\C)C(=O)O)C(=O)c2ccccc2C1=O | 40.6 | 34.4 | 20.8 | Non-toxic | – | – | – | – | – | –
7 | CC1=C(CCC(C)C(=O)O)C(=O)c2ccccc2C1=O (stereo not drawn) | – | – | – | Non-toxic | – | – | – | 23.1 | 20.6 | 17.3

From ChEMBL document CHEMBL3400021, “Systematic synthesis and anti-inflammatory activity of ω-carboxylated menaquinone derivatives--Investigations on identified and putative vitamin K₂ metabolites” (Bioorg Med Chem, 2015)
